Source: paper PMC4496362, “Potentiating the cellular targeting and anti-tumor activity of Dp44mT via binding to human serum albumin: two saturable mechanisms of Dp44mT uptake by cells” (Oncotarget, 2015)

Tests used:
Format in all cases: binding
Settings in all cases: read-out: % released into dialysate
[1] = target: T1, human serum albumin (HSA) (Homo sapiens, UniProt P02768); assay: equilibrium dialysis with […]-ligand; Trp-214 fluorescence quenching
T1 construct: gene ALB

[2] = target: T2, bovine serum albumin (BSA) (Bos taurus, UniProt P02769); assay: equilibrium dialysis with […]-ligand
T2 construct: gene ALB

[3] = target: T2, bovine serum albumin (BSA); assay: equilibrium dialysis with […]-ligand (weak retention)

T2 sequence (P02769 25-607): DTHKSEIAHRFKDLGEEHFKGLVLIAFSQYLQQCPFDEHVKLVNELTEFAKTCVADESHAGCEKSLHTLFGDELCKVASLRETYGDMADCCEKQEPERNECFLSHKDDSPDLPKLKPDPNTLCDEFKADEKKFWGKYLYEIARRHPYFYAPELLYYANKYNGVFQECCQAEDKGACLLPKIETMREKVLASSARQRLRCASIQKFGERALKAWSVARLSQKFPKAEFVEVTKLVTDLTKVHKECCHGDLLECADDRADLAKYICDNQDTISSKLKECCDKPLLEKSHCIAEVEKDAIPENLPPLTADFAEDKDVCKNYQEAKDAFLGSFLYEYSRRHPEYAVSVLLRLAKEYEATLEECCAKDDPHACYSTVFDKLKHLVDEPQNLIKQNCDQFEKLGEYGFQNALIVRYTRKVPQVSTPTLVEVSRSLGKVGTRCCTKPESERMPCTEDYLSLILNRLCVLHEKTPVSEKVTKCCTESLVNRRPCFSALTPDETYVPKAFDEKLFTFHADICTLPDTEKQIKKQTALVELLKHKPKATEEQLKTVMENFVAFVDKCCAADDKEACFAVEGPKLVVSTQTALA
T1 sequence (P02768 25-609): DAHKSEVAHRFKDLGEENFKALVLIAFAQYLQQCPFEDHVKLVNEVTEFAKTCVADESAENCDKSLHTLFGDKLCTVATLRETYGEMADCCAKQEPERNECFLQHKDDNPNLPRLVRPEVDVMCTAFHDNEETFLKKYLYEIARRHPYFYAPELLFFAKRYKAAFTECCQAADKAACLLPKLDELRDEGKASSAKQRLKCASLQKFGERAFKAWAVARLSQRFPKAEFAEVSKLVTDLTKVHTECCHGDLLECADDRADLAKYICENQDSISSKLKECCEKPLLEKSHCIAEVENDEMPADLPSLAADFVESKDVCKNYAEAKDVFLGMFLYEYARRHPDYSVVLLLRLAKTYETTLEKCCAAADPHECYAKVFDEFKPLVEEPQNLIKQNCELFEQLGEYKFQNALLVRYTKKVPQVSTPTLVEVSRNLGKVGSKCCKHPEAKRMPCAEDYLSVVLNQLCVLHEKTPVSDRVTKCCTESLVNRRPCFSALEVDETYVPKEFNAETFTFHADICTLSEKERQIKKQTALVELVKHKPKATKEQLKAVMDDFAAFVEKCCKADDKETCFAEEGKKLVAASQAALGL

SMILES | fraction unbound [1] | fraction unbound [2] | fraction unbound [3]
CN(C)C(=S)NN=C(c1ccccn1)c1ccccn1 [Dp44mT, di-2-pyridylketone 4,4-dimethyl-3-thiosemicarbazone] | 0.22 ± 0.01 | 0.21 ± 0.005 | –
Cc1ncc(CO)c(C=NNC(=O)c2ccncc2)c1O [PIH, pyridoxal isonicotinoyl hydrazone] | 0.06 ± 0.003 | – | 0.39 ± 0.003
CCNC(=S)N/N=C(\c1ccccc1)c1ccccn1 [Bp4eT, 2-benzoylpyridine 4-ethyl-3-thiosemicarbazone] | 0.04 ± 0.003 | 0.09 ± 0.003 | –
